Test results from PubChem BioAssay (NCI).
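The compound was tested at five concentrations on cells cultured in 96-well plates, with a 48-hour exposure period. TGI: total growth inhibition.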

How the values were obtained:
Test in all cases: DTP human tumour cell line panel, 48 h
[1] = tested on: SR leukemia
[2] = tested on: U251 CNS
[3] = tested on: SN12C renal
[4] = tested on: SK-OV-3 ovarian
[5] = tested on: HS 578T breast
[6] = tested on: KM12 colon
[7] = tested on: NCI-H460 lung
[8] = tested on: HOP-92 NSCLC
[9] = tested on: MALME-3M melanoma
[10] = tested on: MCF7 breast
[11] = tested on: RXF 393 renal
[12] = tested on: NCI/ADR-RES ovarian
[13] = tested on: MDA-MB-231 breast
[14] = tested on: SK-MEL-2 melanoma
[15] = tested on: SNB-19 CNS
[16] = tested on: BT-549 breast
[17] = tested on: M14 melanoma
[18] = tested on: A498 renal
[19] = tested on: EKVX NSCLC
[20] = tested on: SNB-75 CNS
[21] = tested on: HOP-62 NSCLC
[22] = tested on: SW-620 colon
[23] = tested on: T-47D breast
[24] = tested on: NCI-H23 lung
[25] = tested on: OVCAR-8 ovarian
[26] = tested on: MDA-N
[27] = tested on: OVCAR-4 ovarian
[28] = tested on: NCI-H226 lung
[29] = tested on: UACC-257 melanoma
[30] = tested on: UACC-62 melanoma
[31] = tested on: ACHN renal
[32] = tested on: COLO 205 colon
[33] = tested on: PC-3 prostate
[34] = tested on: SF-295 CNS
[35] = tested on: NCI-H522 lung
[36] = tested on: IGROV1 ovarian
[37] = tested on: SK-MEL-5 melanoma
[38] = tested on: HCT-116 colon
[39] = tested on: CAKI-1 renal
[40] = tested on: SF-268 CNS
[41] = tested on: OVCAR-5 ovarian
[42] = tested on: SK-MEL-28 melanoma
[43] = tested on: DU-145 prostate
[44] = tested on: MDA-MB-435
[45] = tested on: OVCAR-3 ovarian
[46] = tested on: A549 NSCLC
[47] = tested on: HT29 colon
[48] = tested on: K-562 leukemia
[49] = tested on: HCT-15 colon
[50] = tested on: UO-31 renal
[51] = tested on: SF-539 CNS
[52] = tested on: RPMI-8226 leukemia
[53] = tested on: 786-0 renal
[54] = tested on: TK-10 renal
[55] = tested on: HCC-2998 colon
[56] = tested on: MOLT-4 leukemia
[57] = tested on: LOX IMVI melanoma
[58] = tested on: CCRF-CEM leukemia
[59] = tested on: HL-60(TB) leukemia

For `Cc1ncc([N+](=O)[O-])n1CCN=[N+]=[N-]`, the TGI [1] was greater than 100 µM, the TGI [2] was greater than 100 µM and the TGI [3] was greater than 100 µM. The TGI [4] was greater than 100 µM, the TGI [5] was greater than 100 µM and the TGI [6] was greater than 100 µM. It also gave a TGI [7] greater than 100 µM, a TGI [8] greater than 100 µM and a TGI [9] greater than 100 µM. The TGI [10] was greater than 100 µM, the TGI [11] was greater than 100 µM and the TGI [12] was greater than 100 µM. It also gave a TGI [13] greater than 100 µM, a TGI [14] greater than 100 µM and a TGI [15] greater than 100 µM. The TGI [16] was greater than 100 µM, the TGI [17] was greater than 100 µM and the TGI [18] was greater than 100 µM. It also gave a TGI [19] greater than 100 µM, a TGI [20] greater than 100 µM and a TGI [21] greater than 100 µM. It also gave a TGI [22] greater than 100 µM, a TGI [23] greater than 100 µM and a TGI [24] greater than 100 µM. For the same compound, the TGI [25] was greater than 100 µM, the TGI [26] was greater than 100 µM and the TGI [27] was greater than 100 µM. For the same compound, the TGI [28] was greater than 100 µM, the TGI [29] was greater than 100 µM and the TGI [30] was greater than 100 µM. The TGI [31] was greater than 100 µM, the TGI [32] was greater than 100 µM and the TGI [33] was greater than 100 µM. It also gave a TGI [34] greater than 100 µM, a TGI [35] greater than 100 µM and a TGI [36] greater than 100 µM. It also gave a TGI [37] greater than 100 µM, a TGI [38] greater than 100 µM and a TGI [39] greater than 100 µM. It also gave a TGI [40] greater than 100 µM, a TGI [41] greater than 100 µM and a TGI [42] greater than 100 µM. It also gave a TGI [43] greater than 100 µM, a TGI [44] greater than 100 µM and a TGI [45] greater than 100 µM. For the same compound, the TGI [46] was greater than 100 µM, the TGI [47] was greater than 100 µM and the TGI [48] was greater than 100 µM. For the same compound, the TGI [49] was greater than 100 µM, the TGI [50] was greater than 100 µM and the TGI [51] was greater than 100 µM. The TGI [52] was greater than 100 µM, the TGI [53] was greater than 100 µM and the TGI [54] was greater than 100 µM.

For `O=C1c2cc([N+](=O)[O-])ccc2NC2C(O)c3ccccc3N12` (stereo unspecified), the TGI [1] was 56.2 µM, the TGI [2] was greater than 100 µM and the TGI [3] was greater than 100 µM. The TGI [4] was 36 µM, the TGI [5] was 74.3 µM and the TGI [6] was greater than 100 µM. It also gave a TGI [7] of 97 µM, a TGI [8] of 53.6 µM and a TGI [10] greater than 100 µM. It also gave a TGI [11] of 34.5 µM, a TGI [12] of 63.1 µM and a TGI [13] greater than 100 µM. The TGI [14] was greater than 100 µM, the TGI [15] was greater than 100 µM and the TGI [16] was 61.4 µM. For the same compound, the TGI [17] was greater than 100 µM, the TGI [18] was 41.8 µM and the TGI [19] was 43 µM. The TGI [20] was 44.8 µM, the TGI [21] was greater than 100 µM and the TGI [23] was 49.6 µM. It also gave a TGI [24] of 72.5 µM, a TGI [55] greater than 100 µM and a TGI [25] of 65 µM. It also gave a TGI [26] greater than 100 µM, a TGI [27] of 55.8 µM and a TGI [28] of 82.9 µM. For the same compound, the TGI [29] was 55.3 µM, the TGI [30] was 47.9 µM and the TGI [31] was 80.7 µM. For the same compound, the TGI [32] was greater than 100 µM, the TGI [33] was greater than 100 µM and the TGI [34] was greater than 100 µM. It also gave a TGI [35] of 38.7 µM, a TGI [56] of 49.1 µM and a TGI [36] of 75.3 µM. It also gave a TGI [37] greater than 100 µM, a TGI [38] greater than 100 µM and a TGI [39] of 54 µM. For the same compound, the TGI [40] was greater than 100 µM, the TGI [41] was greater than 100 µM and the TGI [43] was 94.5 µM. The TGI [44] was greater than 100 µM, the TGI [45] was greater than 100 µM and the TGI [46] was greater than 100 µM. The TGI [47] was greater than 100 µM, the TGI [48] was 87.8 µM and the TGI [49] was greater than 100 µM. The TGI [50] was greater than 100 µM, the TGI [51] was 74.7 µM and the TGI [52] was 44.1 µM. For the same compound, the TGI [53] was 64.4 µM, the TGI [57] was greater than 100 µM and the TGI [54] was 58.1 µM.

Work on `O=C1/C(=C/c2ccccc2S)N=C(c2ccccc2)N1c1ccc2c(c1)Sc1cc(N3C(=O)/C(=C/c4ccccc4S)N=C3c3ccccc3)ccc1N2` yielded a TGI [1] of 40.4 µM, a TGI [2] of 40.5 µM and a TGI [3] of 34.3 µM. It also gave a TGI [4] of 33.8 µM, a TGI [5] of 72.4 µM and a TGI [6] greater than 100 µM. It also gave a TGI [7] of 63.7 µM, a TGI [8] of 34.5 µM and a TGI [10] of 39.1 µM. For the same compound, the TGI [12] was greater than 100 µM, the TGI [13] was 89.9 µM and the TGI [14] was 44.8 µM. The TGI [15] was 30.4 µM, the TGI [16] was 73.5 µM and the TGI [17] was 35 µM. The TGI [18] was 35.4 µM, the TGI [19] was 41.6 µM and the TGI [20] was 38.4 µM. It also gave a TGI [21] of 72.7 µM, a TGI [22] of 41.6 µM and a TGI [23] of 51.3 µM. For the same compound, the TGI [55] was 37.1 µM, the TGI [58] was 33.3 µM and the TGI [25] was 43.1 µM. For the same compound, the TGI [26] was 51.3 µM, the TGI [27] was 90.5 µM and the TGI [29] was 42.3 µM. For the same compound, the TGI [30] was 42.7 µM, the TGI [31] was 33.5 µM and the TGI [32] was greater than 100 µM. It also gave a TGI [33] of 46.9 µM, a TGI [34] of 39.9 µM and a TGI [56] of 39.7 µM. For the same compound, the TGI [36] was 29.1 µM, the TGI [37] was 30.7 µM and the TGI [38] was 40.8 µM. The TGI [39] was 41.7 µM, the TGI [40] was 39.6 µM and the TGI [41] was 35.6 µM. For the same compound, the TGI [42] was 44.5 µM, the TGI [43] was 40.4 µM and the TGI [44] was 48.9 µM. The TGI [45] was 38.1 µM, the TGI [46] was 35 µM and the TGI [47] was greater than 100 µM. For the same compound, the TGI [48] was 51 µM, the TGI [49] was greater than 100 µM and the TGI [50] was 29.9 µM. It also gave a TGI [51] of 24.1 µM, a TGI [52] of 46.8 µM and a TGI [53] of 46.4 µM. The TGI [57] was 48.1 µM and the TGI [54] was 31.3 µM.

In the case of `C=C(CCOC)CCC1CCCCC(=C)C1=O` (stereo unspecified), the TGI [1] is reported as greater than 100 µM, the TGI [2] is reported as greater than 100 µM and the TGI [3] is reported as greater than 100 µM. The TGI [4] was greater than 100 µM, the TGI [5] was greater than 100 µM and the TGI [6] was greater than 100 µM. The TGI [7] was greater than 100 µM, the TGI [9] was greater than 100 µM and the TGI [10] was greater than 100 µM. It also gave a TGI [11] greater than 100 µM, a TGI [12] greater than 100 µM and a TGI [13] greater than 100 µM. For the same compound, the TGI [14] was greater than 100 µM, the TGI [15] was greater than 100 µM and the TGI [16] was greater than 100 µM. For the same compound, the TGI [59] was greater than 100 µM, the TGI [17] was greater than 100 µM and the TGI [18] was greater than 100 µM. The TGI [19] was greater than 100 µM, the TGI [20] was greater than 100 µM and the TGI [21] was greater than 100 µM. For the same compound, the TGI [22] was greater than 100 µM, the TGI [23] was greater than 100 µM and the TGI [24] was greater than 100 µM. The TGI [55] was greater than 100 µM, the TGI [58] was greater than 100 µM and the TGI [25] was greater than 100 µM. For the same compound, the TGI [26] was greater than 100 µM, the TGI [27] was greater than 100 µM and the TGI [28] was greater than 100 µM. It also gave a TGI [30] greater than 100 µM, a TGI [31] greater than 100 µM and a TGI [32] greater than 100 µM. For the same compound, the TGI [33] was greater than 100 µM, the TGI [34] was greater than 100 µM and the TGI [35] was greater than 100 µM. It also gave a TGI [56] greater than 100 µM, a TGI [36] greater than 100 µM and a TGI [37] greater than 100 µM. It also gave a TGI [38] greater than 100 µM, a TGI [39] greater than 100 µM and a TGI [40] greater than 100 µM. It also gave a TGI [41] greater than 100 µM, a TGI [42] greater than 100 µM and a TGI [43] greater than 100 µM. It also gave a TGI [44] greater than 100 µM, a TGI [45] greater than 100 µM and a TGI [46] greater than 100 µM. The TGI [47] was greater than 100 µM, the TGI [48] was greater than 100 µM and the TGI [49] was greater than 100 µM. For the same compound, the TGI [50] was greater than 100 µM, the TGI [52] was greater than 100 µM and the TGI [53] was greater than 100 µM. It also gave a TGI [57] greater than 100 µM.
